Source: patent US20220323471A1 (priority 2019, published 2022)

How the values were obtained:
ZIKV strain MR766 = experiment: In situ (+)-ZIKV RNA hybridization in VERO cells; format: cell-based, Zika virus; conditions: MOI 0.5, 1 μM, 48 hours
Protocol: To determine the ZIKV life cycle stage at which DGP acts, two approaches were used to measure the production of viral RNA: 1) In situ hybridization to image viral RNA by using fluorescent probes, and 2) Reverse transcription PCR (qRT-PCR) to quantify viral RNA. […] At 48 hours post-infection, cells were fixed/permeabilized and ZIKV positive-strand RNA and detected by in situ hybridization using a specific fluorescently labeled negative-strand probe (green) and cell nuclei were stained using 4%6-diamidino-2-phenylindole (DAPI; blue). Twenty-five random images were captured for each treatment (Mock, ZIKV MR766, and ZIKV MR766+DGP 1 μM). To quantify the extent of infection, 400 cells per treatment were randomly counted and the percentage of infected (green) cells were calculated.
ZIKV RNA in cultured adherent cells was probed using the RNAscope reagents and protocol (Advanced Cell Diagnostics) (Wang, F. et al. 2012, “RNAscope: a novel in situ RNA analysis platform for formalin-fixed, paraffin-embedded tissues.” J Mol Diagn 14(1): 22-29) with some modifications as previously described (Puray-Chavez, M. 2017, “Multiplex single-cell visualization of nucleic acids and protein during HIV infection.” Nat Commun 8(1): 1882. Fixed cells on coverslips were washed twice with PBS, then incubated with 0.1% Tween-20 in PBS (PBS-T) for 10 min at room temperature (RT) and washed in PBS for 1 min. […]

[1] = system: type I IFN response (IFN-β); experiment: Type I IFN response (IFN-β induction, qRT-PCR) in ZIKV-challenged CHME3 cells; format: cell-based, human; conditions: ZIKV MR766 MOI 1, 0.1 μM and 1 μM, 48 hours
Text: ZIKV infection activates the type I IFN response via IFN-stimulated genes that are activated by the host after recognition of viral components. If ZIKV is inhibited at a pre-fusion step, viral nucleic acids and proteins will not be exposed to the host cytosol; thus the type I IFN response will not be activated. To test whether DGP treatment prevents activation of the type I IFN response, CHME3 cells we challenged using ZIKV MR766 at an MOI of 1 in the presence of different DGP concentrations. At 48 hours post-challenge, the type I IFN response was assessed using qRT-PCR to measure IFN-β induction (FIG. 5).
ZIKV RNA levels were measured using real-time PCR. HT1080 and VERO cells were challenged by ZIKV MR766 at an MOI of 1 in the presence of DGP. At 48 hours post-challenge, cells were lysed and total RNA was extracted using trizol. Total RNA was used to determine the levels of ZIKV RNA by real-time PCR using specific primers against ZIKA. qRT-PCR was carried out using SYBR green in a 20-μl final volume using a MASTERCYCLER proS machine. The primers used to detect ZIKV were: SEQ ID NO. 1: 5′-TT […]-3′-Forward (Genome Position 941-964) and SEQ ID NO. 2: 5′-[…]-3′-Reverse (Genome position 1123-1103) (AY632535.2). For the detection of SeV, the following primers were used: SEQ ID NO. 3: 5′-[…]-3′-Forward (Genome position 210-233) and SEQ ID NO. […]

WNV-RVP = format: cell-based, West Nile virus; conditions: VERO cells; DGP 1 μM; NH4Cl 20 mM

COc1cc2c(OC3OC(C)C(O)C(O)C3O)c3c(c(-c4ccc5c(c4)OCO5)c2cc1OC)C(=O)OC3 (stereo not shown) [DGP, 6-deoxyglucose-diphyllin]
% Infected Cells (ZIKV strain MR766): 3.05% | Infected Cells (Green) (ZIKV strain MR766; of 400 cells counted): 12 | activation of the type I IFN response (IFN-β induction) [1]: substantially decreased and/or prevented | WNV RVP infection (WNV-RVP): almost undetectable
